Reference: paper PMC3479967 (Evidence-based Complementary and Alternative Medicine : eCAM, 2012)

Tests used:
UGT1A6 = target: T1, UGT1A6 (Homo sapiens, UniProt P19224); assay: Inhibition of recombinant UGT1A6 activity (4-MU glucuronidation)
T1 sequence (P19224 27-532): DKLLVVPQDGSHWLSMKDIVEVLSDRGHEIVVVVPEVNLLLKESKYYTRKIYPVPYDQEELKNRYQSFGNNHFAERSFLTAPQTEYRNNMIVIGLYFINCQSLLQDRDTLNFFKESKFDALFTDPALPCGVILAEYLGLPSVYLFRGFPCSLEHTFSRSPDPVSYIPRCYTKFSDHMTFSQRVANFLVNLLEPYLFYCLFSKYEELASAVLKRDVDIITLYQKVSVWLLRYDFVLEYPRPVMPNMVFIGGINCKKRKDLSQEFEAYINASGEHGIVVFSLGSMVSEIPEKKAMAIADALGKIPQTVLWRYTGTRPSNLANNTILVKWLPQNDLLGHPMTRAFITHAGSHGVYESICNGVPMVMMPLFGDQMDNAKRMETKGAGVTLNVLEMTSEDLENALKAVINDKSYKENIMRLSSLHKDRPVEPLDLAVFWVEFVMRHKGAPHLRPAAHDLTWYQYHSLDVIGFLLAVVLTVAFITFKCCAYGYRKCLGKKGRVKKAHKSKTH
Procedure: (§1) A panel of recombinant human UGT supersomes (UGT1A1, UGT1A3, UGT1A4, UGT1A6, UGT1A7, UGT1A8, UGT1A9, UGT1A10, UGT2B4, UGT2B7, UGT2B15, and UGT2B17) expressed in baculovirus-infected insect cells were purchased from BD Gentest Corp. (Woburn, MA, USA).
(§2) 4-MU, a nonselective substrate of UGTs, was used as probe substrate for all UGTs except UGT1A4. Incubations with each individual enzyme were conducted using conditions previously described. There was a 5 min preincubation step at 37°C before the reaction was started by addition of UDPGA. The incubation mixtures were then centrifuged at 20,500 ×g for 15 min to obtain the supernatant. Aliquots (20 μL) were then analyzed by HPLC. The HPLC system (SHIMADZU, Kyoto, Japan) consisted of an SCL-10A system controller, two LC-10AT pumps, a SIL-10A auto injector, and a SPD-10AVP UV detector. Chromatographic separation was achieved using a Kromasil ODS column (4.6 × 150 mm I.D., 5 μm particle size) at a flow rate of 1 mL/min and UV detection at 316 nm. The mobile phase consisted of 10 mM KH2PO4, pH 2.7 (A) and acetonitrile (B). The following gradient was applied at a flow rate of 1 mL/min: 0–4 min 80% A and 20% B, 4.1–8 min 50% A and 50% B, 8.1–12 min, 30% A and 70% B. All experiments were performed in two independent experiments in duplicate.
(§3) A typical incubation mixture contained recombinant human UGTs, 5 mM MgCl2, 5 mM UDPGA, 50 μg/mg protein alamethicin, 50 mM Tris-HCl buffer (pH 7.4), and various probe substrates of UGTs in the absence or presence of different concentrations of inhibitors. […] The final concentration of DMSO in the incubation system was 1% (v/v). […]
(§4) Inhibition data from experiments were graphically represented by Dixon plots. K i values were calculated by nonlinear regression using the equations for competitive inhibition (1), noncompetitive inhibition (2), or mixed inhibition (3), [22] […] The type of inhibition was determined from the enzyme inhibition models. Goodness of fit to kinetic and inhibition models was assessed from the F statistic, r ^2 values, parameter standard error estimates, and 95% confidence intervals. […]

UGT2B4 = target: T2, UGT2B4 (Homo sapiens, UniProt P06133); assay: Inhibition of recombinant UGT2B4 activity (4-MU glucuronidation)
T2 sequence (P06133 24-528): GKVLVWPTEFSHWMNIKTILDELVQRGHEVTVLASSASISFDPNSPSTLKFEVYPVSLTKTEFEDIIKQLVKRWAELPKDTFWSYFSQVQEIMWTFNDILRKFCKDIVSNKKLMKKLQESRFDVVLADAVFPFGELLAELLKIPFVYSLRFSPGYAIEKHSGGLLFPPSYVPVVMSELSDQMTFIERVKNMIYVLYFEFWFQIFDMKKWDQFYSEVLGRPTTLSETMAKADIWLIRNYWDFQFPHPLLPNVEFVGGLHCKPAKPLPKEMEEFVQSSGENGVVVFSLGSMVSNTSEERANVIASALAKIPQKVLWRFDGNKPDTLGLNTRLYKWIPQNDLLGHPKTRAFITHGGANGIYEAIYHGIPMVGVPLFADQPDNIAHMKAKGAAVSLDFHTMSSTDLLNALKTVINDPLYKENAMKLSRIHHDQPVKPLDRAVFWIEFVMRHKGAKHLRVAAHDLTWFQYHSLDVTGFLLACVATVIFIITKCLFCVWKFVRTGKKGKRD
Procedure: as §1, §2, §3, §4

| IC50 (UGT1A6) | IC50 (UGT2B4) | SMILES |
| --- | --- | --- |
| > 100 µM | > 100 µM | COc1ccc(-c2oc3c(CC=C(C)C)c(O)cc(O)c3c(=O)c2O)cc1 [Icaritin] |
| > 100 µM | > 100 µM | COc1ccc(-c2oc3c(CC=C(C)C)c(O[C@@H]4O[C@H](CO)[C@@H](O)[C@H](O)[C@H]4O)cc(O)c3c(=O)c2O)cc1 [Icariside I] |

| SMILES | IC50 (UGT1A6) | IC50 (UGT2B4) |
| --- | --- | --- |
| COc1ccc(-c2oc3c(CC=C(C)C)c(O[C@@H]4O[C@H](CO)[C@@H](O)[C@H](O)[C@H]4O)cc(O)c3c(=O)c2O[C@@H]2O[C@@H](C)[C@H](O)[C@@H](O)[C@H]2O)cc1 [Icariin] | > 100 µM | > 100 µM |
